Assay results: ChEMBL document CHEMBL1268953, “Discovery of novel 2-aryl-4-benzoyl-imidazoles targeting the colchicines binding site in tubulin as potential anticancer agents” (J Med Chem, 2010)
pIC50: −log10 of the molar value.

Experiments:
LNCaP = assay: Cytotoxicity against human LNCAP cells after 48 hrs by sulforhodamine B assay; type: functional, cell-based
[1] = Cytotoxicity against mouse B16-F1 cells after 48 hrs by sulforhodamine B assay; type: functional, cell-based
DU-145 = assay: cells; conditions: Homo sapiens, DU-145, 48 h
Description: Cytotoxicity against human DU145 cells after 48 hrs by sulforhodamine B assay

[2] = Cytotoxicity against human WM164 cells after 48 hrs by sulforhodamine B assay; type: functional, cell-based
PPC-1 = assay: Cytotoxicity against human PPC1 cells after 48 hrs by sulforhodamine B assay; type: functional, cell-based
PC-3 = assay: cells; conditions: Homo sapiens, PC-3, 48 h
Description: Cytotoxicity against human PC3 cells after 48 hrs by sulforhodamine B assay

A-375 = assay: Cytotoxicity against human A375 cells after 48 hrs by sulforhodamine B assay; type: functional, cell-based

Row | SMILES | pIC50 (LNCaP) | pIC50 ([1]; Mus musculus, B16-F1, 48 h) | pIC50 (DU-145) | pIC50 ([2]; Homo sapiens, WM164, 48 h) | pIC50 (PPC-1; Homo sapiens, PPC-1, 48 h) | pIC50 (PC-3) | pIC50 (A-375; Homo sapiens, A-375, 48 h) | pIC50 (PPC-1; ppc-1) | pIC50 ([1]; b16-f1) | pIC50 ([2]; wm164) | pIC50 (A-375; a-375)
1 | COc1ccc(-c2nc(C(=O)c3ccc(F)cc3)c[nH]2)cc1OC | 5.60 | 5.38 | 5.00 | 5.85 | 5.66 | 5.00 |  |  |  |  | 
2 | Cc1ccc(C(=O)c2c[nH]c(-c3ccccc3)n2)cc1 | < 5.00 | < 5.00 | < 5.00 | < 5.00 | < 5.00 | < 5.00 | < 5.00 |  |  |  | 
3 | Cc1cccc(C(=O)c2c[nH]c(-c3ccccc3)n2)c1 | < 5.00 | < 5.00 | < 5.00 | < 5.00 | < 5.00 | < 5.00 | < 5.00 |  |  |  | 
4 | O=S(=O)(c1ccccc1)n1ccnc1-c1ccccc1 | < 5.00 | < 5.00 | < 5.00 | < 5.00 | < 5.00 | < 5.00 | < 5.00 |  |  |  | 
5 | O=C(c1ccc(F)cc1)c1c[nH]c(-c2ccccc2)n1 | 6.21 | 6.03 | 6.07 |  | 6.24 | 5.68 |  |  |  |  | 
6 | O=C(c1cccc(F)c1)c1c[nH]c(-c2ccccc2)n1 | < 5.00 | < 5.00 | < 5.00 | < 5.00 | < 5.00 | < 5.00 | < 5.00 |  |  |  | 
7 | COc1cc(C(=O)c2c[nH]c(-c3ccc(OCc4ccccc4)cc3)n2)cc(OC)c1OC | 5.56 |  | 5.00 | 5.26 | 5.55 | 5.00 | 5.28 |  |  |  | 
8 | COc1cc(C(=O)c2c[nH]c(-c3ccc(O)cc3)n2)cc(OC)c1OC |  | 5.62 |  | 5.74 |  |  | 5.80 |  |  |  | 
9 | O=C(c1ccc(F)cc1)c1c[nH]c(-c2ccc(O)cc2)n1 | 5.00 | < 5.00 | < 5.00 | < 5.00 | < 5.00 | < 5.00 |  |  |  |  | 
10 | COc1cc(C(=O)c2c[nH]c(-c3ccc(C(F)(F)F)cc3)n2)cc(OC)c1OC | 6.87 | 6.33 | 6.76 |  | 6.96 | 6.90 | 6.79 |  |  |  | 
11 | COc1cc(C(=O)c2c[nH]c(-c3ccccc3)n2)cc(OC)c1OC | 6.82 | 6.92 | 6.70 | 7.00 | 6.89 | 6.54 | 6.80 |  |  |  | 
12 | COc1ccc(C(=O)c2c[nH]c(-c3ccccc3)n2)cc1 | < 5.00 | < 5.00 | < 5.00 | < 5.00 | < 5.00 | < 5.00 | < 5.00 |  |  |  | 
13 | COc1cccc(C(=O)c2c[nH]c(-c3ccccc3)n2)c1 | < 5.00 | < 5.00 | < 5.00 | < 5.00 | < 5.00 | < 5.00 | < 5.00 |  |  |  | 
14 | COc1cc(OC)cc(C(=O)c2c[nH]c(-c3ccccc3)n2)c1 | 5.44 | 5.27 | 5.59 |  | 5.68 | 5.49 | 5.55 |  |  |  | 
15 | COc1ccc(C(=O)c2c[nH]c(-c3ccccc3)n2)cc1OC | < 5.00 | < 5.00 | < 5.00 | < 5.00 | < 5.00 | < 5.00 | < 5.00 |  |  |  | 
16 | COc1ccc(C(=O)n2ccnc2-c2ccccc2)cc1 | < 5.00 | < 5.00 | < 5.00 | < 5.00 | < 5.00 | < 5.00 | < 5.00 |  |  |  | 
17 | Cc1ccc(-c2ncc(C(=O)c3ccc(F)cc3)n2S(=O)(=O)c2ccccc2)cc1 | 7.26 | 6.54 | 7.10 | 6.97 | 7.24 | 7.10 |  |  |  |  | 

Row | SMILES | pIC50 (LNCaP) | pIC50 ([1]; Mus musculus, B16-F1, 48 h) | pIC50 (DU-145) | pIC50 ([2]; Homo sapiens, WM164, 48 h) | pIC50 (PPC-1; Homo sapiens, PPC-1, 48 h) | pIC50 (PC-3) | pIC50 (A-375; Homo sapiens, A-375, 48 h) | pIC50 (PPC-1; ppc-1) | pIC50 ([1]; b16-f1) | pIC50 ([2]; wm164) | pIC50 (A-375; a-375)
18 | COc1cc(C(=O)n2ccnc2-c2ccccc2)cc(OC)c1OC | < 5.00 | < 5.00 | < 5.00 | < 5.00 | < 5.00 | < 5.00 | < 5.00 |  |  |  | 
19 | O=[N+]([O-])c1ccc(-c2nccn2S(=O)(=O)c2ccccc2)cc1 | < 5.00 | < 5.00 | < 5.00 | < 5.00 | < 5.00 | < 5.00 | < 5.00 |  |  |  | 
20 | O=S(=O)(c1ccccc1)n1ccnc1-c1ccc(OCc2ccccc2)cc1 | < 5.00 | < 5.00 | < 5.00 | < 5.00 | < 5.00 | < 5.00 | < 5.00 |  |  |  | 
21 | COc1cc(C(=O)c2c[nH]c(-c3ccc(F)cc3)n2)cc(OC)c1OC | 7.01 | 6.49 | 6.88 | 7.14 | 7.09 | 6.77 | 6.69 |  |  |  | 
22 | COc1cc(C(=O)c2cnc(-c3ccc(N(C)C)cc3)n2S(=O)(=O)c2ccccc2)cc(OC)c1OC | 7.21 | 5.92 | 7.00 | 6.51 |  | 7.03 | 6.79 |  |  |  | 
23 | COc1ccc(-c2nc(C(=O)c3cc(OC)c(OC)c(OC)c3)c[nH]2)cc1 | 7.51 | 6.97 | 7.32 |  | 7.47 | 7.35 |  |  |  |  | 
24 | COc1ccc(-c2ncc(C(=O)c3cc(OC)c(OC)c(OC)c3)n2S(=O)(=O)c2ccccc2)cc1OC | 6.94 | 6.01 | 6.84 | 6.86 |  | 6.71 | 6.72 |  |  |  | 
25 | COc1cc(C(=O)c2c[nH]c(-c3ccc(C)cc3)n2)cc(OC)c1OC |  | 7.34 |  | 8.10 |  |  |  | 7.96 |  |  | 
26 | Cc1ccc(-c2nc(C(=O)c3ccc(F)cc3)c[nH]2)cc1 [listing 1 of 2 here] | 7.35 | 6.65 | 7.11 | 6.81 | 7.27 | 7.19 | 6.85 |  |  |  | 
27 | Cc1ccc(-c2nc(C(=O)c3ccc(F)cc3)c[nH]2)cc1 [listing 2 of 2 here] |  |  |  |  |  |  |  |  | 6.53 | 6.95 | 6.97
28 | COc1cc(C(=O)c2c[nH]c(-c3cc(OC)c(OC)c(OC)c3)n2)cc(OC)c1OC | < 5.00 | < 5.00 | < 5.00 | < 5.00 | < 5.00 | < 5.00 | 5.32 |  |  |  | 
29 | COc1cc(-c2nc(C(=O)c3ccc(F)cc3)c[nH]2)cc(OC)c1OC | < 5.00 | < 5.00 | < 5.00 | < 5.00 | < 5.00 | < 5.00 | < 5.00 |  |  |  | 
30 | COc1cc(C(=O)c2c[nH]c(-c3ccc(Cl)cc3)n2)cc(OC)c1OC | 7.62 | 6.77 | 7.44 |  | 7.59 | 7.46 | 7.37 |  |  |  | 
31 | O=C(c1cc(O)c(O)c(O)c1)c1c[nH]c(-c2ccc(Cl)cc2)n1 | 5.00 | 5.74 | 5.00 | 5.68 | < 5.00 | 5.00 | 5.41 |  |  |  | 
32 | CN(C)c1ccc(-c2nc(C(=O)c3ccc(F)cc3)c[nH]2)cc1 | 7.24 |  |  | 7.21 | 7.35 | 7.09 |  |  |  |  | 
33 | COc1ccc(-c2nc(C(=O)c3cc(OC)c(OC)c(OC)c3)c[nH]2)cc1OC |  | 5.85 |  | 6.72 |  |  |  |  |  |  | 
